Experimental data reported in patent US11208443B2, “NAF-1 derived peptides and uses thereof” (YISSUM RESEARCH DEVELOPMENT COMPANY OF THE HEBREW …, priority 2017, dated 2021).
Where two headings read alike, the source gives them in different places. Non-standard residues stand in square brackets, D forms with d. Residues, ends and D or L forms follow the SMILES beside them. No end group written: not given here. PEG8 = NCCOCCOCCOCCOCCOCCOCCOCCOCCC(=O)O

Legend:
chymotrypsin = assay: Stability against protease cleavage, HPLC; format: in vitro ADME
Procedure: Stability of the D-PEP, and 3D-PEP, analogs, and of PEG-N-3D-PEP and PEG-C-3D-PEP conjugates against protease cleavage (chymotrypsin and trypsin) was tested and compared to stability of the native peptide having SEQ ID NO: 1. To peptides' stocks of 430 μl in concentration of 450 μM were added 0.001 mg/ml protease (Trypsin or Chymotrypsin) and incubated in room temperature (22° C.). Samples of 40 μl were taken before adding the protease and after every 15 min in the first hour, and after 2 […] and 24 h. To stop the proteolysis samples were added 7 μl of 2% TFA in TDW. The samples were added 60 μl TDW and were analyzed using analytical HPLC.

[1] = Cell viability of malignant cells (Examples 1, 6, 10); format: cell-based, human
Source text: (§1) However, substitution of several amino acids to Ala drastically diminished the toxicity of these analogs.

MCF-10A cells [2] = tested on: MCF-10A cells
Procedure: The ability of the peptide having the sequence SEQ ID NO: 1 to penetrate into the cells and its effect on cells' viability was tested as following. Green fluorescein was conjugated to the peptide having SEQ ID NO: 1 (the labeled peptide is referred as PEP-FL). Then, the fluorescent peptide was incubated with normal, non-tumor epithelial cell line (MCF-10A) and malignant (MDA-MB-231) breast epithelial cells. The mitochondria of the cells were labeled red with RPA and the cells' nuclei were labeled with Hoechst 33342 (blue dye).

MDA-MB-231 cells [3] = assay: Cell viability of malignant cells (Examples 1, 6, 10); format: cell-based, human
Source text: as §1

MDA-MB-231 cells [4] = assay: Penetration of fluorescein-labeled peptide into malignant cells; format: cell-based, human; settings: FIG. 2, FIG. 6A
Procedure: (§2) To elucidate the site of action of the peptide having SEQ ID NO: 1, the peptide was labeled as described in Example 1 and incubated with normal and malignant cells (MCF-10A and MDA-MB-231 cells, respectively). […] Without being bound to any specific theory it was estimates that the peptide affects or disrupts the structure of the mitochondrial and nuclear membrane.
(§3) In addition to D-PEP peptide (SEQ ID NO:3), in which all amino acids of SEQ ID NO: 1 were substituted to D-amino acids, a peptide comprising only 3 D-amino acids was produced and has the sequence FLGVLALLGyLAVRPfLPKkKQQK (SEQ ID NO: 2, referred as 3D-PEP). This peptide, as well as D-PEP, both marked with Fluorescein, were tested for their ability to penetrate into non-tumor MCF-10A and malignant MDA-MB-231 and for their toxicity, as described in Example 3. Briefly, cells were incubated with 10 μM of each sample of the peptides for 3 h and then intensively washed. Cell fluorescence was observed by semi-confocal microscope. For cell viability measurement, cells were incubated with 10 μM or 5 μM of each one of the peptides for 5 days and then cell viability was assayed using Alamar blue assay.

MCF-10A cells [5] = assay: Effect of labeled peptide on nuclei, confocal imaging; format: cell-based; settings: FIG. 6C
Procedure: as §2

MDA-MB-231 cells [6] = assay: Effect of labeled peptide on mitochondria and nuclei, confocal imaging; format: cell-based, human
Procedure: as §2

MCF-10A cells [7] = assay: Penetration of fluorescein-labeled peptide into non-malignant cells; format: cell-based; settings: FIG. 2
Procedure: as §2, §3

CC(C)C[C@H](NC(=O)[C@H](C)NC(=O)[C@H](CC(C)C)NC(=O)[C@@H](NC(=O)CNC(=O)[C@H](CC(C)C)NC(=O)[C@@H](N)Cc1ccccc1)C(C)C)C(=O)N[C@@H](CC(C)C)C(=O)NCC(=O)N[C@H](Cc1ccc(O)cc1)C(=O)N[C@@H](CC(C)C)C(=O)N[C@@H](C)C(=O)N[C@H](C(=O)N[C@@H](CCCNC(=N)N)C(=O)N1CCC[C@H]1C(=O)N[C@H](Cc1ccccc1)C(=O)N[C@@H](CC(C)C)C(=O)N1CCC[C@H]1C(=O)N[C@@H](CCCCN)C(=O)N[C@H](CCCCN)C(=O)N[C@@H](CCCCN)C(=O)N[C@@H](CCC(N)=O)C(=O)N[C@@H](CCC(N)=O)C(=O)N[C@@H](CCCCN)C(=O)O)C(C)C [3D-PEP, FLGVLALLGyLAVRPfLPKkKQQK] (H-FLGVLALLG[dY]LAVRP[dF]LPK[dK]KQQK-OH; N-terminus and C-terminus assumed)
half life against chymotrypsin compared to native peptide (chymotrypsin): much longer half life

CC(C)C[C@H](NC(=O)[C@H](C)NC(=O)[C@H](CC(C)C)NC(=O)[C@@H](NC(=O)CNC(=O)[C@H](CC(C)C)NC(=O)[C@@H](N)Cc1ccccc1)C(C)C)C(=O)N[C@@H](CC(C)C)C(=O)NCC(=O)N[C@H](Cc1ccc(O)cc1)C(=O)N[C@@H](CC(C)C)C(=O)N[C@@H](C)C(=O)N[C@H](C(=O)N[C@@H](CCCNC(=N)N)C(=O)N1CCC[C@H]1C(=O)N[C@H](Cc1ccccc1)C(=O)N[C@@H](CC(C)C)C(=O)N1CCC[C@H]1C(=O)N[C@@H](CCCCN)C(=O)N[C@H](CCCCN)C(=O)N[C@@H](CCCCN)C(=O)N[C@@H](CCC(N)=O)C(=O)N[C@@H](CCC(N)=O)C(=O)N[C@@H](CCCCN)C(=O)NCCOCCOCCOCCOCCOCCOCCOCCOCCC(N)=O)C(C)C [PEG-C-3D-PEP] (H-FLGVLALLG[dY]LAVRP[dF]LPK[dK]KQQK[PEG8]-NH2; N-terminus assumed)
cytotoxicity [1]: ~70%
effect on viability of normal cells (MCF-10A cells [2]): much weaker effect

CC(C)C[C@H](NC(=O)[C@H](C)NC(=O)[C@H](CC(C)C)NC(=O)[C@@H](NC(=O)CNC(=O)[C@H](CC(C)C)NC(=O)[C@H](Cc1ccccc1)NC(=O)CCOCCOCCOCCOCCOCCOCCOCCOCCN)C(C)C)C(=O)N[C@@H](CC(C)C)C(=O)NCC(=O)N[C@H](Cc1ccc(O)cc1)C(=O)N[C@@H](CC(C)C)C(=O)N[C@@H](C)C(=O)N[C@H](C(=O)N[C@@H](CCCNC(=N)N)C(=O)N1CCC[C@H]1C(=O)N[C@H](Cc1ccccc1)C(=O)N[C@@H](CC(C)C)C(=O)N1CCC[C@H]1C(=O)N[C@@H](CCCCN)C(=O)N[C@H](CCCCN)C(=O)N[C@@H](CCCCN)C(=O)N[C@@H](CCC(N)=O)C(=O)N[C@@H](CCC(N)=O)C(=O)N[C@@H](CCCCN)C(N)=O)C(C)C [PEG-N-3D-PEP] (H-[PEG8]FLGVLALLG[dY]LAVRP[dF]LPK[dK]KQQK-NH2; C-terminus assumed)
cytotoxicity [1]: ~80%
effect on viability of normal cells (MCF-10A cells [2]): much weaker effect

CC(C)C[C@H](NC(=O)[C@H](C)NC(=O)[C@H](C)NC(=O)[C@@H](NC(=O)CNC(=O)[C@H](C)NC(=O)[C@H](C)N)C(C)C)C(=O)N[C@@H](CC(C)C)C(=O)NCC(=O)N[C@@H](Cc1ccc(O)cc1)C(=O)N[C@@H](CC(C)C)C(=O)N[C@@H](C)C(=O)N[C@H](C(=O)N[C@@H](CCCNC(=N)N)C(=O)N1CCC[C@H]1C(=O)N[C@@H](Cc1ccccc1)C(=O)N[C@@H](CC(C)C)C(=O)N1CCC[C@H]1C(=O)N[C@@H](CCCCN)C(=O)N[C@@H](CCCCN)C(=O)N[C@@H](CCCCN)C(=O)N[C@@H](CCC(N)=O)C(=O)N[C@@H](CCC(N)=O)C(=O)N[C@@H](CCCCN)C(=O)O)C(C)C [PEP-F44A-L45A-L48A] (H-AAGVAALLGYLAVRPFLPKKKQQK-OH; N-terminus and C-terminus assumed)
cytotoxic activity of alanine analogs (MDA-MB-231 cells [3]): completely lost their cytotoxic activity

CC(C)C[C@H](NC(=O)[C@H](C)NC(=O)[C@H](CC(C)C)NC(=O)[C@@H](NC(=O)CNC(=O)[C@H](C)NC(=O)[C@H](C)N)C(C)C)C(=O)N[C@@H](CC(C)C)C(=O)NCC(=O)N[C@@H](Cc1ccc(O)cc1)C(=O)N[C@@H](CC(C)C)C(=O)N[C@@H](C)C(=O)N[C@H](C(=O)N[C@@H](CCCNC(=N)N)C(=O)N1CCC[C@H]1C(=O)N[C@@H](Cc1ccccc1)C(=O)N[C@@H](CC(C)C)C(=O)N1CCC[C@H]1C(=O)N[C@@H](CCCCN)C(=O)N[C@@H](CCCCN)C(=O)N[C@@H](CCCCN)C(=O)N[C@@H](CCC(N)=O)C(=O)N[C@@H](CCC(N)=O)C(=O)N[C@@H](CCCCN)C(=O)O)C(C)C [PEP-F44A-L45A] (H-AAGVLALLGYLAVRPFLPKKKQQK-OH; N-terminus and C-terminus assumed)
cytotoxic activity of alanine analogs (MDA-MB-231 cells [3]; MDA-MB-231, FIG. 18): completely lost their cytotoxic activity

CC(C)C[C@H](NC(=O)[C@H](C)NC(=O)[C@H](C)NC(=O)[C@H](C)NC(=O)[C@@H](NC(=O)CNC(=O)[C@H](CC(C)C)NC(=O)[C@@H](N)Cc1ccccc1)C(C)C)C(=O)NCC(=O)N[C@@H](Cc1ccc(O)cc1)C(=O)N[C@@H](CC(C)C)C(=O)N[C@@H](C)C(=O)N[C@H](C(=O)N[C@@H](CCCNC(=N)N)C(=O)N1CCC[C@H]1C(=O)N[C@@H](Cc1ccccc1)C(=O)N[C@@H](CC(C)C)C(=O)N1CCC[C@H]1C(=O)N[C@@H](CCCCN)C(=O)N[C@@H](CCCCN)C(=O)N[C@@H](CCCCN)C(=O)N[C@@H](CCC(N)=O)C(=O)N[C@@H](CCC(N)=O)C(=O)N[C@@H](CCCCN)C(=O)O)C(C)C [PEP-L48A-L50A] (H-FLGVAAALGYLAVRPFLPKKKQQK-OH; N-terminus and C-terminus assumed)
cytotoxic activity of alanine analogs (MDA-MB-231 cells [3]): completely lost their cytotoxic activity

PEP-FL: Green fluorescein was conjugated to the peptide having SEQ ID NO: 1 (FLGVLALLGYLAVRPFLPKKKQQK; also: green fluorescein conjugated, site not given here)
uptake of fluorescent peptide by malignant cells (MDA-MB-231 cells [4]): preferentially up-taken by the cancer MDA-MB-231 cells
effect on nuclei of normal cells (MCF-10A cells [5]): no serious damage
effect on nuclei of malignant cells (MDA-MB-231 cells [6]; 12 hours of incubation, FIG. 6C): completely disappeared
effect on mitochondria of malignant cells (MDA-MB-231 cells [6]; time after peptide addition, FIG. 6B): disappeared within three hours
uptake of fluorescent peptide by normal cells (MCF-10A cells [7]): not by normal cells
